From ChEMBL document CHEMBL1129999, “Modeling, chemistry, and biology of the benzolactam analogues of indolactam V (ILV). 2. Identification of the binding site of the benzolactams in the CRD2 activator-binding domain of PKCdelta and discovery of an ILV analogue of improved isozyme selectivity” (J Med Chem, 1997)

Key:
[1] = target: Protein kinase C beta type (Homo sapiens, UniProt P05771); test: Displacement of [3H]- PDBu from recombinant PKC beta expressed in baculovirus
[2] = target: T1, Protein kinase C delta type (Homo sapiens, UniProt Q05655); test: Inhibition of [3H]PDBu binding to PKC delta mutant Pro 11-Gly
Target sequence in this assay (Q05655 whole entry, looked up): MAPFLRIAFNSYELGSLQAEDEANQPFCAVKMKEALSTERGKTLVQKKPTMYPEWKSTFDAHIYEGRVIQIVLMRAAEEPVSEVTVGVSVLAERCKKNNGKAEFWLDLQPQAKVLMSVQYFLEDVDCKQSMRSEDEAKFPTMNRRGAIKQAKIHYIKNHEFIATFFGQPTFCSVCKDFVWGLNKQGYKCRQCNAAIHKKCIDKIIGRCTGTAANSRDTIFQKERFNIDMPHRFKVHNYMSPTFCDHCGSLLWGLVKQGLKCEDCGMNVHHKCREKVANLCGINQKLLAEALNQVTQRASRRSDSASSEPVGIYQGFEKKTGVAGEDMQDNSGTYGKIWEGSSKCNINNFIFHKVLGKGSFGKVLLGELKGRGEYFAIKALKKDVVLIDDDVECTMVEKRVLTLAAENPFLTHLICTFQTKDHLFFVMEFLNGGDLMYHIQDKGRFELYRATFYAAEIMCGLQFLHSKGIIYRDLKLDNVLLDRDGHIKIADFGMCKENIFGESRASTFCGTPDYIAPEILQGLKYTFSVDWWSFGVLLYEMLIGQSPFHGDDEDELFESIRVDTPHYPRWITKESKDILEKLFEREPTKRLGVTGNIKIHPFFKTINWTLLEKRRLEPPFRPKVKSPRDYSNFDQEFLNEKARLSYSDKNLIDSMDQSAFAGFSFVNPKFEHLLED

[3] = target: Protein kinase C alpha type (Homo sapiens, UniProt P17252); test: Displacement of [3H]- PDBu from recombinant PKC alpha expressed in baculovirus
[4] = target: T2, Protein kinase C epsilon type (Homo sapiens, UniProt Q02156); test: Displacement of [3H]- PDBu from recombinant PKC epsilon expressed in baculovirus
T2 sequence (Q02156 whole entry): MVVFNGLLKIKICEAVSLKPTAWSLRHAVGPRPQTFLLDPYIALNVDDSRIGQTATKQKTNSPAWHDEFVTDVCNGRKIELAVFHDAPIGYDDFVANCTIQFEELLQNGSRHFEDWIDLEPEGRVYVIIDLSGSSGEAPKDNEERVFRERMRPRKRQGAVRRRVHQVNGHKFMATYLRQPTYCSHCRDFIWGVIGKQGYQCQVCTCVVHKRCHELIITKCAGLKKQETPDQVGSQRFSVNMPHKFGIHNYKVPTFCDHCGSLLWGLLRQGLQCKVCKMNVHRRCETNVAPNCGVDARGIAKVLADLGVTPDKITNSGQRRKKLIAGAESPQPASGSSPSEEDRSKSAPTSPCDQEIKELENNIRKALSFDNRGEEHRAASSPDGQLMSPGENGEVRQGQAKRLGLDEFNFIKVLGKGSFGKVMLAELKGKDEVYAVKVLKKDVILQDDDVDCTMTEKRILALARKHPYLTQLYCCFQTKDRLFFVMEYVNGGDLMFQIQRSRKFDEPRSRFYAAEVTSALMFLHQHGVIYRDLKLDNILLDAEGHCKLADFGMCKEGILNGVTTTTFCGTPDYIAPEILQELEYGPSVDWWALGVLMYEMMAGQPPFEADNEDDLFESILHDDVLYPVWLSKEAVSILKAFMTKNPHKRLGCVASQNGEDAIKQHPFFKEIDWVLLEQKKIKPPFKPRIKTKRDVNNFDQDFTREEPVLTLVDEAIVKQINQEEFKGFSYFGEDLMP

[5] = target: T1, Protein kinase C delta type; test: Displacement of [3H]- PDBu from recombinant PKC delta expressed in baculovirus
Target sequence in this assay (Q05655 whole entry): as the sequence (Q05655 whole entry, looked up) above

[6] = target: T1, Protein kinase C delta type; test: Inhibition of [3H]PDBu binding to PKC delta wild type
Target sequence in this assay (Q05655 whole entry): as the sequence (Q05655 whole entry, looked up) above

[7] = target: T1, Protein kinase C delta type; test: Inhibition of [3H]-PDBu binding to PKC delta mutant Gln 27-Val
Target sequence in this assay (Q05655 whole entry, looked up): as the sequence (Q05655 whole entry, looked up) above

[8] = target: Protein kinase C gamma type (Homo sapiens, UniProt P05129); test: Displacement of [3H]- PDBu from recombinant PKC gamma expressed in baculovirus
[9] = target: T1, Protein kinase C delta type; test: Inhibition of [3H]PDBu binding to PKC delta mutant Leu 20-Gly
Target sequence in this assay (Q05655 whole entry, looked up): as the sequence (Q05655 whole entry, looked up) above

[10] = target: T1, Protein kinase C delta type; test: Inhibition of [3H]PDBu binding to PKC delta mutant Gln 27-Gly (No binding)
Target sequence in this assay (Q05655 whole entry, looked up): as the sequence (Q05655 whole entry, looked up) above

[11] = target: T1, Protein kinase C delta type; test: Inhibition of [3H]-PDBu binding to PKC delta mutant Leu 24-Gly (No binding)
Target sequence in this assay (Q05655 whole entry, looked up): as the sequence (Q05655 whole entry, looked up) above

Protein kinase C beta type, sequence (P05771 whole entry): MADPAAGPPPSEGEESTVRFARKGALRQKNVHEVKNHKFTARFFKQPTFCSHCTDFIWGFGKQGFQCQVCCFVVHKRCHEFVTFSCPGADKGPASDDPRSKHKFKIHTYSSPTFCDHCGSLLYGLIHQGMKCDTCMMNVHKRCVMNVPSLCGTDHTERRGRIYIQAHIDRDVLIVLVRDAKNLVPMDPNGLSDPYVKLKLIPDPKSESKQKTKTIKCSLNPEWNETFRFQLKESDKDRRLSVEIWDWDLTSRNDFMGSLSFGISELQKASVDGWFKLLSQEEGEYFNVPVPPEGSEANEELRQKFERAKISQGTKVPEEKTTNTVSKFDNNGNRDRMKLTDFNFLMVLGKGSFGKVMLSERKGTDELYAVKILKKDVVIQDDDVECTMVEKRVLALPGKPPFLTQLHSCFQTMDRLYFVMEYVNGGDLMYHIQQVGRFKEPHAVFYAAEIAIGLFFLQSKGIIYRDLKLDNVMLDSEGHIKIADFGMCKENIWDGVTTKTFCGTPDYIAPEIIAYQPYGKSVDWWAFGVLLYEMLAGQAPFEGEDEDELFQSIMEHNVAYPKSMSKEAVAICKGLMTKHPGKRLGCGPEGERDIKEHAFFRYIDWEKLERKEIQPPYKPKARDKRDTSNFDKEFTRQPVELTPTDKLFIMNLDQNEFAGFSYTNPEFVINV

SMILES	Ki [1]	Ki [2]	Ki [3]	Ki [4]	Ki [5]	Ki [6]	Ki [7]	Ki [8]	Ki [9]	Ki [10]	Ki [11]
CCCCCCCCC#Cc1ccc2c(c1)C[C@@H](CO)NC(=O)[C@H](C(C)C)N2C	17.4 nM	730 nM	14.7 nM	142 nM	122 nM	10.7 nM	933 nM	40.7 nM	134 nM	–	–
CCCC(=O)O[C@@H]1[C@@H](C)[C@@]2(O)[C@@H](C=C(CO)C[C@]3(O)C(=O)C(C)=C[C@@H]23)[C@@H]2C(C)(C)[C@]12OC(=O)CCC	–	–	–	–	–	–	–	–	–	Not Active	Not Active
CC(C)[C@H]1C(=O)N[C@H](CO)Cc2ccccc2N1C	–	–	334 nM	–	–	–	–	–	–	–	–
CC(C)[C@H]1C(=O)N[C@H](CO)Cc2c[nH]c3cccc(c23)N1C [INDOLACTUM]	6.1 nM	–	–	21.9 nM	8.2 nM	–	–	19.4 nM	–	–	–
CCCCCCCCc1ccc2c3c(c[nH]c13)C[C@@H](CO)NC(=O)[C@H](C(C)C)N2C	0.4 nM	–	0.5 nM	1 nM	0.8 nM	–	–	1.2 nM	–	–	–
CCCCCCCCCCc1ccc2c(c1)C[C@@H](CO)NC(=O)[C@H](C(C)C)N2C	–	–	46.6 nM	187 nM	142 nM	–	–	122 nM	–	–	–
